In test [1] the target is T1, Ubiquitin carboxy-terminal hydrolase L1 (UCHL1) (Homo sapiens, UniProt P09936).
T1 construct: recombinant UCHL1
T1 sequence (P09936 1-220): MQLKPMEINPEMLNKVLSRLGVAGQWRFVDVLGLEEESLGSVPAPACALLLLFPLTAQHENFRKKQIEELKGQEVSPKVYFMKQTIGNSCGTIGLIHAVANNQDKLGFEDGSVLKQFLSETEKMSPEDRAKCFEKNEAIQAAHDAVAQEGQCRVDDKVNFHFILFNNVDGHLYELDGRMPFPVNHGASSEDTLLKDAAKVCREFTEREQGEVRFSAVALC
Kind of test: fluorescence polarization assay with Ub-Lys-TAMRA, […] min preincubation; covalent adduct by LC-ESI-MS; cellular HTRF. Format: biochemical. A general note: Fluorescence polarisation rises when a labelled molecule tumbles more slowly, as on binding a larger partner.

The target of test [2] is T2, ALDH2 (Homo sapiens, UniProt P05091).
T2 sequence (P05091 18-517): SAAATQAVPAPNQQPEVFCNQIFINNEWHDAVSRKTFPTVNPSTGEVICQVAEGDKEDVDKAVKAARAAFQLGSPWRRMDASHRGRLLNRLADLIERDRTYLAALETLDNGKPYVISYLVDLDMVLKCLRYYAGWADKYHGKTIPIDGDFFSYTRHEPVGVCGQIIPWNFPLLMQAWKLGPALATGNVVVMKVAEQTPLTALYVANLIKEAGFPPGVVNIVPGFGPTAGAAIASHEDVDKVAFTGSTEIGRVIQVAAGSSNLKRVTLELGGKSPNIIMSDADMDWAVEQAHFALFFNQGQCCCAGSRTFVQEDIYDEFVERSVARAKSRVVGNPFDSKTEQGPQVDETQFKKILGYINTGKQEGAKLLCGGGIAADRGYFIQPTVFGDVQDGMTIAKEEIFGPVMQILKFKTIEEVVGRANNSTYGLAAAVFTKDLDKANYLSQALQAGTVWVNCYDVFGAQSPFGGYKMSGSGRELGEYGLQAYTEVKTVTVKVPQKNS
Kind of test: competitive ABPP against MT16-205 in HEK293 cells (LFQ proteomics). Format: cell-based.

In test [3] the target is T3, USP30 (Homo sapiens, UniProt Q70CQ3).
T3 sequence (Q70CQ3 1-517): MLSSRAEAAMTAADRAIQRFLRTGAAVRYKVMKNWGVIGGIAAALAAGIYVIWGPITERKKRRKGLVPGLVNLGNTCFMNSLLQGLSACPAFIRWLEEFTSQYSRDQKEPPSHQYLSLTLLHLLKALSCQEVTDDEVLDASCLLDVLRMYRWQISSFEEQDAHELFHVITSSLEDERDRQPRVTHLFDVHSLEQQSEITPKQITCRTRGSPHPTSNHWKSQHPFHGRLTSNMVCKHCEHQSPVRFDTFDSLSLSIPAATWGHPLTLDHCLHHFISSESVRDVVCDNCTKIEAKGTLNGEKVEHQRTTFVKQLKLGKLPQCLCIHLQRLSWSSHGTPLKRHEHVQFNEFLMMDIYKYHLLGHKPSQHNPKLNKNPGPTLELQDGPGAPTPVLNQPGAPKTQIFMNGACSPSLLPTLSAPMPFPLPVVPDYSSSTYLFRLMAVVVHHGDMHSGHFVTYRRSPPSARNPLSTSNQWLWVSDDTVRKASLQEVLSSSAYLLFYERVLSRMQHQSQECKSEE
Kind of test: DUB selectivity panel at […] (FP / FI in vitro assays). The class given is biochemical.

Test [4] concerns the target T1, Ubiquitin carboxy-terminal hydrolase L1 (UCHL1). Kind of test: fluorescence polarization assay with Ub-Lys-TAMRA, […] min preincubation; covalent adduct by LC-ESI-MS; ABPP pulldown. The class given is biochemical.
Test [5] deals with T2, ALDH2. Kind of test: ABPP in HEK293 cells, LFQ chemical proteomics, competed by MT16-001. The class given is cell-based.
Test [6] deals with ALDH9A1 (Homo sapiens, UniProt P49189). Kind of test: ABPP in HEK293 cells: streptavidin pulldown immunoblot and LFQ chemical proteomics. Format: cell-based.
Sequence of ALDH9A1 (P49189 whole entry): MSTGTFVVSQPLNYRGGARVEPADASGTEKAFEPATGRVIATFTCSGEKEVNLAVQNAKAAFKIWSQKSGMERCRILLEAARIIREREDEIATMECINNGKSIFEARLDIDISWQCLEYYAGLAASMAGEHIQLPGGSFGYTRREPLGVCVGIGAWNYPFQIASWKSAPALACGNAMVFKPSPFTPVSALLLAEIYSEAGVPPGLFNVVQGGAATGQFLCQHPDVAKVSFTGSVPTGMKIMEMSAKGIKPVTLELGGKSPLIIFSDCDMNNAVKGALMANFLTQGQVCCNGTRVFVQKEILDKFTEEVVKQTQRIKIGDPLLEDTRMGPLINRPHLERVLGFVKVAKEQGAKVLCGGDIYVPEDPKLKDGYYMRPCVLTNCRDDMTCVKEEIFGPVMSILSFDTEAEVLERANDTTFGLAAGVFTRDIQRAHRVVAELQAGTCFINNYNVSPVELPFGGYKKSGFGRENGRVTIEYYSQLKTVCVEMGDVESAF

What is called IC50 is the concentration that gives 50% inhibition. High values mean lower potency, low ones higher potency. In turn, `N#CN1CC[C@H](C(=O)Nc2ncc(-c3ccccc3)s2)C1` [MT16-001] yielded a half-inhibitory concentration (IC50) in test [1] of 580 ± 25 nM. Further, in test [2], the “competitive ABPP against MT16-205 in HEK293 cells (LFQ proteomics)” value was “Four targets, ALDH2, ALDH9A1, GATD3A and UCHL1, responded to parent compound MT16-001 in a concentration dependent manner”.
What is called inhibition is the relative decrease from the control value, in per cent. A lower inhibition goes with little suppression. `N#CN1CC[C@H](C(=O)Nc2nc(-c3ccccc3)cs2)C1` [MT16-009]: in test [3], the inhibition at 1 µM came out at 50%.
Compound `C#Cc1ccc(-c2cnc(NC(=O)[C@H]3CCN(C#N)C3)s2)cc1` [MT16-205] yielded an IC50 in test [4] of 600 ± 78 nM. Also, in test [5], the “ABPP in HEK293 cells, LFQ chemical proteomics, competed by MT16-001” value was “ALDH2, ALDH9A1, and GATD3A were confirmed as the genuine targets of MT16-001, MT16-205 and MT16-009”. The “ABPP in HEK293 cells: streptavidin pulldown immunoblot and LFQ chemical proteomi” value in test [6] is on record as “also ALDH9A1, which was one of the off-targets of MT16-205 in HEK293 cells”.
